From patent publication US20210101881A1 (Ancureall Pharmaceutical (Shanghai) Co., Ltd., priority 2018, published 2021)

What was measured:
Assay in all cases: Growth inhibition of CDK9-positive tumor cell line in vitro
Assay type in all cases: cell-based
8305C = settings: Human thyroid cancer, read-out: Inhibitory activity (IC50) on growth in vitro, 8305C
Protocol: (§1) Measurement of the Inhibitory Activity of the Present Compound on the Growth of Various Types of CDK9-Positive Tumor Cell Lines In Vitro
(§2) The inventors selected representative CDK9-positive tumor cell lines for further determination of the compound activity. All cell lines used came from ATCC, JCRB, DSMZ and Chinese Academy of Sciences Cell Bank (ZK). Cell culture condition and method were based on the requirements of each cell line. No more than 3 passages were carried out in each culture in vitro. Monoclonal purification and STR identification of the cell line were conducted if necessary.

CA Ski = settings: Human cervical cancer, read-out: Inhibitory activity (IC50) on growth in vitro, CA Ski
Protocol: as §1, §2

PC-9 = settings: Human lung cancer, read-out: Inhibitory activity (IC50) on growth in vitro, PC-9
Protocol: as §1, §2

TPC-1 = settings: TPC1, Human thyroid cancer, read-out: Inhibitory activity (IC50) on growth in vitro, TPC-1
Protocol: as §1, §2

DU-145 = settings: Human prostate cancer, read-out: Inhibitory activity (IC50) on growth in vitro, DU-145
Protocol: as §1, §2

BT-474 = settings: Human breast cancer, read-out: Inhibitory activity (IC50) on growth in vitro, BT-474
Protocol: as §1, §2

Sk-ov-3 = settings: Human ovarian cancer, read-out: Inhibitory activity (IC50) on growth in vitro, Sk-ov-3
Protocol: as §1, §2

HuCCT-1 = settings: Human cholangiocarcinoma, read-out: Inhibitory activity (IC50) on growth in vitro, HuCCT-1
Protocol: as §1, §2

NCI-H358 = settings: Human lung cancer, read-out: Inhibitory activity (IC50) on growth in vitro, NCI-H358
Protocol: as §1, §2

HCT-116 = settings: Human intestinal cancer, read-out: Inhibitory activity (IC50) on growth in vitro, HCT-116
Protocol: as §1, §2

HCC1954 = settings: Human breast cancer, read-out: Inhibitory activity (IC50) on growth in vitro, HCC1954
Protocol: as §1, §2

BT-549 = settings: Human breast cancer, read-out: Inhibitory activity (IC50) on growth in vitro, BT-549
Protocol: as §1, §2

LN229 = settings: LN-229, Human glioma, read-out: Inhibitory activity (IC50) on growth in vitro, LN229
Protocol: as §1, §2

NCI-H1581 = settings: Human lung cancer, read-out: Inhibitory activity (IC50) on growth in vitro, NCI-H1581
Protocol: as §1, §2

JIMT-1 = settings: Human breast cancer, read-out: Inhibitory activity (IC50) on growth in vitro, JIMT-1
Protocol: as §1, §2

KHM-5M = settings: read-out: Inhibitory activity (IC50) on growth in vitro, Human thyroid cancer
Protocol: as §1, §2

NCI-H460 = settings: Human lung cancer, read-out: Inhibitory activity (IC50) on growth in vitro, NCI-H460
Protocol: as §1, §2

HO8910PM = settings: Human ovarian cancer, read-out: Inhibitory activity (IC50) on growth in vitro, HO8910PM
Protocol: as §1, §2

SK-MEL-28 = settings: Human melanoma, read-out: Inhibitory activity (IC50) on growth in vitro, SK-MEL-28
Protocol: as §1, §2

SK-BR-3 = settings: Human breast cancer, read-out: Inhibitory activity (IC50) on growth in vitro, SK-BR-3
Protocol: as §1, §2

MCF7 = settings: Human breast cancer, read-out: Inhibitory activity (IC50) on growth in vitro, MCF7
Protocol: as §1, §2

MX-1 = settings: MX1, Human breast cancer, read-out: Inhibitory activity (IC50) on growth in vitro, MX-1
Protocol: as §1, §2

B-CPAP = settings: BCPAP, Human thyroid cancer, read-out: Inhibitory activity (IC50) on growth in vitro, B-CPAP
Protocol: as §1, §2

MDA-MB-453 = settings: Human breast cancer, read-out: Inhibitory activity (IC50) on growth in vitro, MDA-MB-453
Protocol: as §1, §2

MDA-MB-436 = settings: Human breast cancer, read-out: Inhibitory activity (IC50) on growth in vitro, MDA-MB-436
Protocol: as §1, §2

NCI-H1993 = settings: Human lung cancer, read-out: Inhibitory activity (IC50) on growth in vitro, NCI-H1993
Protocol: as §1, §2

SMILES | IC50 (8305C) [nM] | IC50 (CA Ski) [nM] | IC50 (PC-9) [nM] | IC50 (TPC-1) [nM] | IC50 (DU-145) [nM] | IC50 (BT-474) [nM] | IC50 (Sk-ov-3) [nM] | IC50 (HuCCT-1) [nM] | IC50 (NCI-H358) [nM] | IC50 (HCT-116) [nM] | IC50 (HCC1954) [nM] | IC50 (BT-549) [nM] | IC50 (LN229) [nM] | IC50 (NCI-H1581) [nM] | IC50 (JIMT-1) [nM] | IC50 (KHM-5M) [nM] | IC50 (NCI-H460) [nM] | IC50 (HO8910PM) [nM] | IC50 (SK-MEL-28) [nM] | IC50 (SK-BR-3) [nM] | other results
Cc1cc(Nc2ncc(Cl)c(-n3cc(C(N)=O)c4ccccc43)n2)ccc1N1CCN(C(C)C)CC1 [Compound 60, 1-{5-chloro-2-[4-(4-isopropyl-piperazin-1-yl)-3-methyl-phenylamino]-pyrimidin-4-yl}-1H-indole-3-carboxamide] | 10 to 100 | 10 to 100 | 100 to 1000 | 10 to 100 | 10 to 100 | 10 to 100 | 10 to 100 | 100 to 1000 | 100 to 1000 | 100 to 1000 | 1 to 10 | 10 to 100 | 100 to 1000 | 10 to 100 | 10 to 100 | 10 to 100 | 100 to 1000 | 10 to 100 | 100 to 1000 | 1 to 10 | IC50 (MCF7): 10 to 100 nM; IC50 (MX-1): 1 to 10 nM; IC50 (B-CPAP): 10 to 100 nM
NC(=O)c1cn(-c2nc(Nc3cccc(N4CCN(C5CCOCC5)CC4)c3)ncc2F)c2ccccc12 [Compound 140, 1-(5-fluoro-2-{3-[4-(tetrahydro-pyran-4-yl)-piperazin-1-yl]-phenylamino}-pyrimidin-4-yl)-1H-indole-3-carboxamide] | < 1 | < 1 | 1 to 10 | < 1 | < 1 | < 1 | < 1 | 1 to 10 | 1 to 10 | 1 to 10 | < 1 | < 1 | 1 to 10 | < 1 | < 1 | < 1 | 1 to 10 | < 1 | 1 to 10 | < 1 | IC50 (MDA-MB-453): < 1 nM; IC50 (MDA-MB-436): < 1 nM; IC50 (NCI-H1993): 1 to 10 nM; IC50 (MCF7): < 1 nM; IC50 (MX-1): < 1 nM; IC50 (B-CPAP): < 1 nM
CC(C)N1CCN(c2cccc(Nc3ncc(F)c(-n4cc(C(N)=O)c5ccccc54)n3)c2)CC1 [Compound 144, 1-{5-fluoro-2-[3-(4-isopropyl-piperazin-1-yl)-phenylamino]-pyrimidin-4-yl}-1H-indole-3-carboxamide] | < 1 | < 1 | 1 to 10 | < 1 | < 1 | < 1 | < 1 | 1 to 10 | 1 to 10 | 1 to 10 | < 1 | < 1 | < 1 | < 1 | < 1 | < 1 | 1 to 10 | < 1 | 1 to 10 | < 1 | IC50 (MDA-MB-453): < 1 nM; IC50 (MDA-MB-436): < 1 nM; IC50 (NCI-H1993): 1 to 10 nM; IC50 (MCF7): < 1 nM; IC50 (MX-1): < 1 nM; IC50 (B-CPAP): < 1 nM
CCN1CCN(c2cccc(Nc3ncc(F)c(-n4cc(C(N)=O)c5cc(OC)ccc54)n3)c2)CC1 [Compound 152, 1-{2-[3-(4-ethyl-piperazin-1-yl)-phenylamino]-5-fluoro-pyrimidin-4-yl}-5-methoxy-1H-indole-3-carboxamide] | 1 to 10 | < 1 | 1 to 10 | 1 to 10 | 1 to 10 | < 1 | < 1 | 1 to 10 | 1 to 10 | 1 to 10 | < 1 | < 1 | 1 to 10 | < 1 | < 1 | 1 to 10 | 1 to 10 | < 1 | 1 to 10 | < 1 | IC50 (MDA-MB-453): < 1 nM; IC50 (MDA-MB-436): < 1 nM; IC50 (NCI-H1993): 1 to 10 nM; IC50 (MCF7): < 1 nM; IC50 (MX-1): < 1 nM; IC50 (B-CPAP): 1 to 10 nM
CCN1CCN(c2cccc(Nc3ncc(F)c(-n4cc(C(N)=O)c5cc(F)ccc54)n3)c2)CC1 [Compound 161, 1-{2-[3-(4-ethyl-piperazin-1-yl)-phenylamino]-5-fluoro-pyrimidin-4-yl}-5-fluoro-1H-indole-3-carboxamide] | 1 to 10 | < 1 | 1 to 10 | 1 to 10 | 1 to 10 | < 1 | < 1 | 1 to 10 | 1 to 10 | 1 to 10 | < 1 | < 1 | 1 to 10 | < 1 | < 1 | 1 to 10 | 1 to 10 | < 1 | 1 to 10 | < 1 | IC50 (MDA-MB-453): < 1 nM; IC50 (MDA-MB-436): < 1 nM; IC50 (NCI-H1993): 10 to 100 nM; IC50 (MCF7): < 1 nM; IC50 (MX-1): < 1 nM; IC50 (B-CPAP): 1 to 10 nM
